Laboratory results reported in paper PMC6102592, “Synthesis of New Benzothiazole Acylhydrazones as Anticancer Agents” (Molecules : A Journal of Synthetic Chemistry and Natural …, 2018).

Tests used:
[1] = test system: HT-29 (Human colorectal adenocarcinoma cell line); assay: MTT cytotoxicity test, HT-29; format: cell-based
Protocol: (§1) MTT assay, depending on the capability of metabolically active cells that change the pale yellow MTT colour to a spectrophotometrically measured blue formazan salt, is one of the most favoured cytotoxicity tests. We assessed the antitumor potential of new benzothiazole-acylhydrazones on A549, C6, MCF-7, and HT-29 cell lines with various concentrations (1 mM, 0.316 mM, 0.1 mM, 0.0316 mM, 0.01 mM, 0.00316 mM, 0.001 mM, 0.000316 mM). In addition, the cytotoxic activities of compounds 4a–4j were evaluated against healthy NIH3T3 cells, owing to show the selectivity towards carcinogenic cells. The IC50 values of the compounds against cell lines are represented in Table 1.
(§2) Metabolic activity of viable cells was measured by MTT assay based on the reduction of 3-(4,5-dimethylthiazol-2-yl)-2,5-diphenyltetrazolium salt to a formazan product, which can be quantified spectrophotometrically to determine the percent of viable cells.
(§3) Anticancer activities of new benzothiazole acylhydrazones derivatives were evaluated against A549 C6, MCF-7 and HT-29 cell lines. The selectivity of their cytotoxic effects was evaluated on NIH/3T3 mouse embryonic fibroblast cells. NIH/3T3 cells were incubated in DMEM supplemented with fetal calf serum, penicillin (100 IU/mL), streptomycin ([…]) and 7.5% NaHCO3 at 37 °C in a humidified atmosphere of 95% air and 5% CO2. Carcinogenic cells were incubated in RPMI medium supplemented with fetal calf serum, penicillin (100 IU/mL), streptomycin ([…]) and 7.5% NaHCO3 at 37 °C in a humidified atmosphere of 95% air and 5% CO2. All cell lines were seeded at a density of 1 × 10^4 cells into the 96-well plates. After 24 h of incubating period, the culture mediums were removed and test compounds were added at concentrations of 0.000316–1 mM. After a 24 h incubation period, OD of samples were measured by a microplate reader (Biotek, Winooski, VT, USA) at 540 nm. Inhibition % at concentrations was determined using the formula below and IC50 values were calculated by nonlinear regression analysis using the SigmaPlot v.10 package program (Manufacturer, City, US State abbrev. if applicable, Country).

[2] = test system: A549 (Human lung adenocarcinoma epithelial cell line); assay: MTT cytotoxicity test, A549; format: cell-based
Protocol: as §1, §2, §3

[3] = test system: MCF-7 (Human breast adenocarcinoma cell line); assay: MTT cytotoxicity test, MCF-7; format: cell-based
Protocol: as §1, §2, §3

[4] = test system: NIH3T3 (Mouse embryo fibroblast cell line); assay: MTT cytotoxicity test, healthy NIH3T3 cells; format: cell-based; conditions: for IC50: MTT, 24 h incubation, healthy cells
Protocol: as §1, §2, §3

[5] = test system: C6 (Rat brain glioma cell line); assay: MTT cytotoxicity test, C6; format: cell-based; conditions: 24 h incubation
Protocol: as §1, §2, §3

[6] = test system: DNA synthesis of C6 cells; assay: DNA synthesis inhibition assay (BrdU cell proliferation); format: cell-based, Rat; conditions: C6, IC50/4 to 4 × IC50, 24 h
Protocol: This immunostaining assay is related to detecting the attendance of BrdU into nuclear DNA instead of thymidine during S-phase of the cell cycle using specific anti-BrdU antibodies. Thus, this study was performed to evaluate inhibitory effects of compounds 4d, 4e, and 4h on proliferation of C6 cell lines. […] Figure 2 represents the DNA synthesis inhibitory effect of compounds 4d, 4e, and 4h on C6 cells.
The BrdU cell proliferation method was performed to analyse the effects of compounds 4d, 4e and 4h on proliferation of C6 cells. C6 cells were seeded into the 96-well plates at a density of 1 × 10^4 cells. […] At the end of the incubation period, BrdU solution was added and cells were reincubated for 2 h at 37 °C. Anti-BrdU-POD ([…]) was added and the mixture was incubated for 90 min. Microplates were washed with PBS for three times. After adding substrate solution, the mixture was incubated for 15 min. OD of the wells were determined at 492 nm.

C6 cell line = assay: Flow cytometric analysis (Annexin V-FITC/PI); format: cell-based, Rat; conditions: for Q1 percentage of necrotic cells / Q2 percentage of late apoptotic cells / Q3 percentage of viable cells / Q4 percentage of early apoptotic cells / viability at 15 µM: 24 h; for percentages of apoptotic cells: C6, at IC50 concentrations, 24 h (sum of Q2 and Q4); for viability at 15 µM: Rattus norvegicus, read-out: Q3 percentage of viable cells
From the text: In the therapy of cancer, apoptosis, or programmed cell death, is one of the distinguished mechanisms of cytotoxic agents. It is an important approach to express the cell death pathway and most of the anticancer drugs induce apoptosis in tumor cells. Annexin V-FITC is a reagent that can detect and measure quantitate of apoptotic cells by flow cytometry. Staining cells with PI and Annexin V-FITC show the differences between live, apoptotic, dead, and late apoptotic or necrotic cells. Thus, this method provides evidence on the pathway of cell death.
Death pathway of the carcinogenic cell lines was detected by Annexin V-FITC Apoptosis Detection Kit (BD, Pharmingen, City, US State abbrev. if applicable, Country) as reported in the manufacturer’s instructions. […] After 24 h incubation period, cells were harvested by centrifugation at 1200 rpm for 5 min. at room temperature, rinsed with cold water twice and then suspended at 1 × 10^6 cells/mL concentration in Annexin V-FITC binding buffer. Propidium iodide ([…]) and annexin V-FITC ([…]) were added for staining the cells and the fluorescence measurements was performed using a flow cytometer. FCSExpress software (version, Manufacturer, City, US State abbrev. if applicable, Country) was used to display the percent of normal and apoptotic cells at different stages. […] The experiments were carried out in triplicate.

[7] = Homo sapiens, HT-29, 24 h incubation
[8] = Homo sapiens, A549, 24 h incubation
[9] = Homo sapiens, MCF7, 24 h incubation

| melting point | SMILES | IC50 [1, 7] | IC50 [2, 8] | IC50 [3, 9] | IC50 ([4]; Mus musculus, NIH3T3) | IC50 ([5]; Rattus norvegicus, Glioma cell) | Q1 percentage of necrotic cells (C6 cell line; C6, IC50 (0.03 mM)) | Q2 percentage of late apoptotic cells (C6 cell line; C6, IC50 (0.03 mM)) | Q4 percentage of early apoptotic cells (C6 cell line; C6, IC50 (0.03 mM)) | percentages of apoptotic cells (C6 cell line) | other results |
| --- | --- | --- | --- | --- | --- | --- | --- | --- | --- | --- | --- |
| 138 to 139 °C | CC1CCCCN1c1ccc(C=NNC(=O)CSc2nc3cc(Cl)ccc3s2)cc1 (stereo not shown) [Compound 4b, 2-((5-Chlorobenzothiazol-2-yl)thio)-N’-(4-(2-methylpiperidin-1-yl)benzylidene)acetohydrazide] | 1000 µM | 1000 µM | > 1000 µM | 100 µM | 100 µM |  |  |  |  |  |
|  | COc1ccc2sc(SCC(=O)NN=Cc3ccc(N4CCCC(C)C4)cc3)nc2c1 (stereo not shown) [Compound 4h, 2-((5-Methoxybenzo[d]thiazol-2-yl)thio)-N’-(4-(3-methylpiperidin-1-yl)benzylidene)acetohydrazide] | > 1000 µM | > 1000 µM | > 1000 µM | 100 µM | 30 µM | 8.6% | 7.4% | 4.6% | 12.0% | DNA synthesis inhibitory activity compared with cisplatin [6]: could not display the same ability as compounds 4d and 4e to inhibit DNA synthesis; Q1 percentage of necrotic cells (C6 cell line; C6, 2 × IC50 (0.06 mM)): 5.4%; Q2 percentage of late apoptotic cells (C6 cell line; C6, 2 × IC50 (0.06 mM)): 10.5%; Q3 percentage of viable cells (C6 cell line; C6, 2 × IC50 (0.06 mM)): 75.2%; Q4 percentage of early apoptotic cells (C6 cell line; C6, 2 × IC50 (0.06 mM)): 8.9%; Q3 percentage of viable cells (C6 cell line; C6, IC50 (0.03 mM)): 79.4%; Q1 percentage of necrotic cells (C6 cell line; C6, IC50/2 (0.015 mM)): 10.8%; Q2 percentage of late apoptotic cells (C6 cell line; C6, IC50/2 (0.015 mM)): 4.9%; Q4 percentage of early apoptotic cells (C6 cell line; C6, IC50/2 (0.015 mM)): 0.3%; viability at 15 µM (C6 cell line; C6, IC50/2 (0.015 mM)): 84.1% |
| 149 to 150 °C | COc1ccc2sc(SCC(=O)NN=Cc3ccc(N4CCC(C)CC4)cc3)nc2c1 [Compound 4i, 2-((5-Methoxybenzo[d]thiazol-2-yl)thio)-N’-(4-(4-methylpiperidin-1-yl)benzylidene)acetohydrazide] | 1000 µM | 490 µM | 300 µM | 30 µM | 100 µM |  |  |  |  |  |
|  | CC1CCN(c2ccc(C=NNC(=O)CSc3nc4cc(Cl)ccc4s3)cc2)CC1 [Compound 4d, 2-((5-Chlorobenzothiazol-2-yl)thio)-N’-(4-(4-methylpiperidin-1-yl)benzylidene)acetohydrazide] | 300 µM | > 1000 µM | 100 µM | > 1000 µM | 30 µM | 6.9% | 3.1% | 2.4% | 5.5% | DNA synthesis inhibitory activity compared with cisplatin [6]: higher inhibition potency than cisplatin at all concentrations; Q1 percentage of necrotic cells (C6 cell line; C6, 2 × IC50 (0.06 mM)): 4.5%; Q2 percentage of late apoptotic cells (C6 cell line; C6, 2 × IC50 (0.06 mM)): 7.1%; Q3 percentage of viable cells (C6 cell line; C6, 2 × IC50 (0.06 mM)): 74.5%; Q4 percentage of early apoptotic cells (C6 cell line; C6, 2 × IC50 (0.06 mM)): 13.9%; Q3 percentage of viable cells (C6 cell line; C6, IC50 (0.03 mM)): 87.6%; Q1 percentage of necrotic cells (C6 cell line; C6, IC50/2 (0.015 mM)): 16.4%; Q2 percentage of late apoptotic cells (C6 cell line; C6, IC50/2 (0.015 mM)): 12.3%; Q4 percentage of early apoptotic cells (C6 cell line; C6, IC50/2 (0.015 mM)): 0.1%; viability at 15 µM (C6 cell line; C6, IC50/2 (0.015 mM)): 71.2% |
| 149 to 150 °C | CC1CCCN(c2ccc(C=NNC(=O)CSc3nc4cc(Cl)ccc4s3)cc2)C1 (stereo not shown) [Compound 4c, 2-((5-Chlorobenzothiazol-2-yl)thio)-N’-(4-(3-methylpiperidin-1-yl)benzylidene)acetohydrazide] | 300 µM | 520 µM | 100 µM | 30 µM | 100 µM |  |  |  |  |  |
|  | N.N.[Cl][Pt][Cl] [Cisplatin, reference compound] |  |  |  |  |  | 3.5% | 18.3% | 2.6% | 20.9% | IC50 ([1]; 24 h incubation): 60 µM; IC50 ([2]; 24 h incubation): 60 µM; IC50 ([3]; 24 h incubation): 50 µM; IC50 [4]: > 1000 µM; IC50 [5]: 30 µM |
| 199 to 200 °C | COc1ccc(N2CCN(c3ccc(C=NNC(=O)CSc4nc5cc(OC)ccc5s4)cc3)CC2)cc1 [Compound 4j, 2-((5-Methoxybenzo[d]thiazol-2-yl)thio)-N’-(4-(4-(4-methoxyphenyl)piperazin-1-yl)benzylidene)acetohydrazide] | > 1000 µM | > 1000 µM | > 1000 µM | > 1000 µM | > 1000 µM |  |  |  |  |  |
|  | COc1ccc(N2CCN(c3ccc(C=NNC(=O)CSc4nc5cc(Cl)ccc5s4)cc3)CC2)cc1 [Compound 4e, 2-((5-Chlorobenzothiazol-2-yl)thio)-N’-(4-(4-(4-methoxyphenyl)piperazin-1-yl)benzylidene)acetohydrazide] | > 1000 µM | 30 µM | 300 µM | 10 µM | 30 µM | 9.8% | 16.0% | 3.5% | 19.5% | DNA synthesis inhibitory activity compared with cisplatin [6]: higher antiproliferative effect than cisplatin at the concentrations of IC50/2, IC50, 2 × IC50, and 4 × IC50; Q1 percentage of necrotic cells (C6 cell line; C6, 2 × IC50 (0.06 mM)): 10.1%; Q2 percentage of late apoptotic cells (C6 cell line; C6, 2 × IC50 (0.06 mM)): 14.0%; Q3 percentage of viable cells (C6 cell line; C6, 2 × IC50 (0.06 mM)): 73.3%; Q4 percentage of early apoptotic cells (C6 cell line; C6, 2 × IC50 (0.06 mM)): 2.5%; Q3 percentage of viable cells (C6 cell line; C6, IC50 (0.03 mM)): 70.7%; Q1 percentage of necrotic cells (C6 cell line; C6, IC50/2 (0.015 mM)): 13.5%; Q2 percentage of late apoptotic cells (C6 cell line; C6, IC50/2 (0.015 mM)): 3.8%; Q4 percentage of early apoptotic cells (C6 cell line; C6, IC50/2 (0.015 mM)): 0%; viability at 15 µM (C6 cell line; C6, IC50/2 (0.015 mM)): 82.6%; selectivity index (SI) ([4]; NIH3T3 versus cancer cells): 0.33 |
| 138 to 139 °C | COc1ccc2sc(SCC(=O)NN=Cc3ccc(N4CCCCC4)cc3)nc2c1 [Compound 4f, 2-((5-Methoxybenzothiazol-2-yl)thio)-N’-(4-(piperidin-1-yl)benzylidene)acetohydrazide] | > 1000 µM | > 1000 µM | > 1000 µM | 30 µM | > 1000 µM |  |  |  |  |  |
| 138 to 139 °C | COc1ccc2sc(SCC(=O)NN=Cc3ccc(N4CCCCC4C)cc3)nc2c1 (stereo not shown) [Compound 4g, 2-((5-Methoxybenzothiazol-2-yl)thio)-N’-(4-(2-methylpiperidin-1-yl)benzylidene)acetohydrazide] | > 1000 µM | > 1000 µM | > 1000 µM | 100 µM | > 1000 µM |  |  |  |  |  |
| 178 to 179 °C | O=C(CSc1nc2cc(Cl)ccc2s1)NN=Cc1ccc(N2CCCCC2)cc1 [Compound 4a, 2-((5-Chlorobenzothiazol-2-yl)thio)-N’-(4-(piperidin-1-yl)benzylidene)acetohydrazide] | 520 µM | > 1000 µM | 490 µM | 100 µM | 100 µM |  |  |  |  |  |
